In this assay the target is T1, IgE-Tb / FcεR1α-Y131A-AF488 (soluble IgE receptor FcεR1α with a Y131A mutation) (Homo sapiens, UniProt P0DOX4, C225A/N265Q/N371Q).
T1 construct: 86 nmoles of IgE-Fc(N265Q, N371Q) (Young et al., 1995)
In words: In vitro FRET assay of IgE-Tb binding to FcεR1α-Y131A-AF488, 2 hours incubation (examples 16 and 89). Conditions: 5 nM IgE-Tb, 25 nM FcεR1α-Y131A-AF488; 2 hours at room temperature; read-out: FRET IC50 range. The protocol: 86 nmoles of IgE-Fc(N265Q, N371Q) (Young et al., 1995) at 172 μM in 100 mM NaHCO3, pH 9.5 was added to 1 mg of LanthaScreen™ Amine Reactive Tb Chelate (ThermoFisher catalogue number PV3583) and incubated for 16 hours at 20° C. The material was then buffer exchanged into Phosphate Buffered Saline (being, 137 mM NaCl, 2.7 mM KCl, 10 mM Na2HPO4, 1.8 mM K2HPO4, pH 7.4) and the material quantified and the degree of Tb conjugation determined by measuring the absorption at 280 nm and 343 nm.
400 nmoles FcεR1α (Y131A mutant) (Cook et al., 1997) at 400 μM in 100 mM NaOAc pH 5.5 was reacted with 1 mM final concentration sodium periodate (in 100 mM NaOAc, pH 5.5) for 60 minutes at 22° C. […]
175 nmoles of protein was added to 1 mg of Alexa Fluor™ 488 hydrazide (Invitrogen) and incubated for 16 hours at 22° C. […] The protein was buffer exchanged into Phosphate Buffered Saline (being, 137 mM NaCl, 2.7 mM KCl, 10 mM Na2HPO4, 1.8 mM K2HPO4, pH 7.4) and the material quantified and the degree of Alexa Fluor™ 488 conjugation determined by measuring the absorption at 280 nm and 495 nm.
The aim was to measure binding of IgE-Tb to receptor, and the inhibition thereof by compounds, using an in vitro Fluorescence Resonance Energy Transfer (FRET) Assay. […]
Measurement of FRET for each well was carried out by exciting at 330 nm and measuring emission at 495/520 nm using an Envision plate reader (Perkin Elmer). […]

One may read the IC50 as the concentration at which inhibition is half-maximal.

T1 sequence (P0DOX4 224-547 C225A/N265Q/N371Q): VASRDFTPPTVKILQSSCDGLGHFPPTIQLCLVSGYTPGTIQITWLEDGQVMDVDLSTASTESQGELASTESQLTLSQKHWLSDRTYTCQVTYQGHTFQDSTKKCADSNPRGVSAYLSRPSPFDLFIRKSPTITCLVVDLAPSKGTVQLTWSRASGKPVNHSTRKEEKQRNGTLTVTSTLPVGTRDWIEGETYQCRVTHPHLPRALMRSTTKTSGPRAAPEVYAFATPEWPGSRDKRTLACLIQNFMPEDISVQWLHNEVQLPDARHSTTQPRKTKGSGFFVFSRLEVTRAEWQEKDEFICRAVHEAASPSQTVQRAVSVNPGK

On to `CC(C)(F)CNS(=O)(=O)c1cc2c(c3cnc(C4CC4)cc13)C(N)CC2NC(=O)c1cccnc1` (centres unmarked) [Example 89, N-[9-amino-3-cyclopropyl-5-[(2-fluoro-2-methylpropyl)sulfamoyl]-8,9-dihydro-7H-cyclopenta[h]isoquinolin-7-yl]pyridine-3-carboxamide], for which the IC50 was in the range of 0.1 to 2 µM.

`CCNC(=O)N[C@H]1C[C@H](O)c2cc(S(=O)(=O)NCC(C)C)c3cc(C4CC4)ncc3c21` (racemic) [Example 16, 1-ethyl-3-[trans-(7RS,9RS)-3-cyclopropyl-7-hydroxy-5-(2-methylpropylsulfamoyl)-8,9-dihydro-7H-cyclopenta[h]isoquinolin-9-yl]urea]: the IC50 lay within 0.1 to 2 µM.

The values above are taken from US20230192646A1, “DIHYDRO-CYCLOPENTA-ISOQUINOLINE DERIVATIVES” (UCB Biopharma SRL, priority 2019, published 2023).
